Values quoted from earlier work, collected in publication PMC9516332 (Frontiers in Oncology, 2022).
Like-named read-outs stand apart in the source and are kept apart here.

Tests used:
Conditions in all cases: cited from earlier work
[1] = target: T1, panel of 255 wild-type kinases (Homo sapiens, UniProt Q9NRA0)
T1 sequence (Q9NRA0 1-654): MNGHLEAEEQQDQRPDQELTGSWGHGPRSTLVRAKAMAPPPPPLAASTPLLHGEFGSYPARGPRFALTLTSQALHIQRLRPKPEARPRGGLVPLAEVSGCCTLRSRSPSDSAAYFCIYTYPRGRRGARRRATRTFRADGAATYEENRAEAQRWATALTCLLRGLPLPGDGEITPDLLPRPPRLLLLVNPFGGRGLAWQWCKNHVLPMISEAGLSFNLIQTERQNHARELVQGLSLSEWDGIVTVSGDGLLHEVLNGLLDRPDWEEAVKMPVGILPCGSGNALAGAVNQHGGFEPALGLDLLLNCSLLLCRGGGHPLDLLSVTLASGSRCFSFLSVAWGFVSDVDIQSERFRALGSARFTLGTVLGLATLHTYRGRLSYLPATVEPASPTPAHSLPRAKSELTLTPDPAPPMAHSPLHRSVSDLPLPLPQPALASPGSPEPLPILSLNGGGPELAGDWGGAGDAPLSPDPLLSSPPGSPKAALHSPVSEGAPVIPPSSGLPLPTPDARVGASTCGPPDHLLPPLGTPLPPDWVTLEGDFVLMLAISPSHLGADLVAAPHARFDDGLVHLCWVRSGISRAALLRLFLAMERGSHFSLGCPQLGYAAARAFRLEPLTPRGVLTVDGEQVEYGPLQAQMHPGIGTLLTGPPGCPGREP

[2] = target: panel of 255 wild-type kinases (Homo sapiens, UniProt P24723)
[3] = target: panel of 255 wild-type kinases (Homo sapiens, UniProt O96017)
[4] = target: panel of 255 wild-type kinases (Homo sapiens, UniProt Q16620)
[5] = target: T2, panel of 255 wild-type kinases (Homo sapiens, UniProt P21709)
T2 sequence (P21709 26-976): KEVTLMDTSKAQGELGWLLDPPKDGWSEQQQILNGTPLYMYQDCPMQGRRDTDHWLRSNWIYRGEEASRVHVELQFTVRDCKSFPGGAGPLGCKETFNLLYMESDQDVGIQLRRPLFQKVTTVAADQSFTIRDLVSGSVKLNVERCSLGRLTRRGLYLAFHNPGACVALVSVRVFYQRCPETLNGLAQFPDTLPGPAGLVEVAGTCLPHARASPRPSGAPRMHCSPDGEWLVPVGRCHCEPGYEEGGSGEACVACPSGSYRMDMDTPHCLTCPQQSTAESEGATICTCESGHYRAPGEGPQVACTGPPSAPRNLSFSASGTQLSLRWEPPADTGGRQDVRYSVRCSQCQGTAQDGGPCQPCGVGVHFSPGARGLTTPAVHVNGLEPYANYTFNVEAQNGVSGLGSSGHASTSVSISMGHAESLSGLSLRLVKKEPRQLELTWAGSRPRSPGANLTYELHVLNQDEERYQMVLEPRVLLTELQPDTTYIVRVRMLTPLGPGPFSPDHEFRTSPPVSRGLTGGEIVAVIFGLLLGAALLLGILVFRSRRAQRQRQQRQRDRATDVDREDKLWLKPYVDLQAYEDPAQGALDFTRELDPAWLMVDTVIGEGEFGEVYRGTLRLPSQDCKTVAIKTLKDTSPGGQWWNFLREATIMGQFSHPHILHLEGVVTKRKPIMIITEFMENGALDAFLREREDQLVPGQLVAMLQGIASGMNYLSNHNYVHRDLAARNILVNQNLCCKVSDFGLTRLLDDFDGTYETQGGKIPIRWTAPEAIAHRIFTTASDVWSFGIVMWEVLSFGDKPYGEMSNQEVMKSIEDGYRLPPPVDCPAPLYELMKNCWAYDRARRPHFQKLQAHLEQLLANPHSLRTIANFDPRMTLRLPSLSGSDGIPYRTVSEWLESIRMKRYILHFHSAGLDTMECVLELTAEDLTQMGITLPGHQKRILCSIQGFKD

[6] = target: panel of 255 wild-type kinases (Homo sapiens, UniProt P29317)
[7] = target: T3, panel of 255 wild-type kinases (Homo sapiens, UniProt P42680)
T3 sequence (P42680 1-631): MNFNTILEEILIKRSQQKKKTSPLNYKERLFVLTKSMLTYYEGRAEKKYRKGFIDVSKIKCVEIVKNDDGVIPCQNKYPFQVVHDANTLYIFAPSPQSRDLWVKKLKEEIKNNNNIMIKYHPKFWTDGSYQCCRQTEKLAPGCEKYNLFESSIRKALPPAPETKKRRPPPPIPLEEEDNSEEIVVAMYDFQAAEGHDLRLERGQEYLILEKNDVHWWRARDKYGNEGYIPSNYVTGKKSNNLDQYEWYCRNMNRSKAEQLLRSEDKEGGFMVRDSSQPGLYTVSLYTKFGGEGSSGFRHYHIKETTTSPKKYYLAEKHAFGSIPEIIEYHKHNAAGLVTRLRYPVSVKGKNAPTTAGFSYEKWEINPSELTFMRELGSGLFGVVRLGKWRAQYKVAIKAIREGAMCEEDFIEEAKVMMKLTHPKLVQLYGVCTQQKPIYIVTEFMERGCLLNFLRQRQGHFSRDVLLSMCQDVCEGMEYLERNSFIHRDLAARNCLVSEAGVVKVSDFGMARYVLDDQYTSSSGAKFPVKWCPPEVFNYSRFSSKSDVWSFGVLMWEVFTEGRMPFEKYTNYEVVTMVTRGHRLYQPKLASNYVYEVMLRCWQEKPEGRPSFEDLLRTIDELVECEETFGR

[8] = kinase SPHK2, 1 µmol/L single concentration, ref DOI: 10.1158/1535-7163.MCT-18-0877
[9] = kinase PKCη, 1 µmol/L single concentration, ref DOI: 10.1158/1535-7163.MCT-18-0877
[10] = CHK2 kinase assay, 1 µmol/L single concentration, ref DOI: 10.1158/1535-7163.MCT-18-0877
[11] = kinase TRKB, 1 µmol/L single concentration, ref DOI: 10.1158/1535-7163.MCT-18-0877
[12] = kinase EPHA1, 1 µmol/L single concentration, ref DOI: 10.1158/1535-7163.MCT-18-0877
[13] = kinase EPHA2, 1 µmol/L single concentration, ref DOI: 10.1158/1535-7163.MCT-18-0877
[14] = kinase TEC, 1 µmol/L single concentration, ref DOI: 10.1158/1535-7163.MCT-18-0877
[15] = kinase SPHK2, 1 µmol/L single concentration, ref DOI: 10.1371/journal.pone.0092146
[16] = kinase PKCη, 1 µmol/L single concentration, ref DOI: 10.1371/journal.pone.0092146
[17] = CHK2 kinase assay, 1 µmol/L single concentration, ref DOI: 10.1371/journal.pone.0092146
[18] = kinase TRKB, 1 µmol/L single concentration, ref DOI: 10.1371/journal.pone.0092146
[19] = kinase EPHA1, 1 µmol/L single concentration, ref DOI: 10.1371/journal.pone.0092146
[20] = kinase EPHA2, 1 µmol/L single concentration, ref DOI: 10.1371/journal.pone.0092146
[21] = kinase TEC, 1 µmol/L single concentration, ref DOI: 10.1371/journal.pone.0092146

SMILES	%-inhibition at 1 µmol/L, SPHK2 [1, 8]	%-inhibition at 1 µmol/L, PKCη [2, 9]	%-inhibition CHK2 [3, 10]	%-inhibition at 1 µmol/L, TRKB [4, 11]	%-inhibition at 1 µmol/L, EPHA1 [5, 12]	%-inhibition at 1 µmol/L, EPHA2 [6, 13]	%-inhibition at 1 µmol/L, TEC [7, 14]	also measured
CC#CC(=O)N1CCC[C@H]1c1nc(-c2ccc(C(=O)Nc3ccccn3)cc2)c2c(N)nccn12 [acalabrutinib]	7%	-3.18%	-6%	14%	-0.591%	-3.6%	96%	
CCc1cc2c(cc1N1CCC(N3CCOCC3)CC1)C(C)(C)c1[nH]c3cc(C#N)ccc3c1C2=O [alectinib]	1.74%	10%	96%	38%	5.62%	1.88%	1.06%	
COc1cc(N2CCC(N3CCN(C)CC3)CC2)ccc1Nc1ncc(Cl)c(Nc2ccccc2P(C)(C)=O)n1 [brigatinib]								%-inhibition at 1 µmol/L, SPHK2 [1]: 11%; %-inhibition at 1 µmol/L, PKCη [2]: 17%; %-inhibition CHK2 [3]: 96%; %-inhibition at 1 µmol/L, TRKB [4]: 27%; %-inhibition at 1 µmol/L, EPHA1 [5]: 61%; %-inhibition at 1 µmol/L, EPHA2 [6]: -2.16%; %-inhibition at 1 µmol/L, TEC [7]: 40%
Cc1cc(Nc2ncc(Cl)c(Nc3ccccc3S(=O)(=O)C(C)C)n2)c(OC(C)C)cc1C1CCNCC1 [ceritinib]	6.4%	5.3%	88%	20%	45%	5.69%	-8%	
O=C(c1ccc(F)c(F)c1Nc1ccc(I)cc1F)N1CC(O)([C@@H]2CCCCN2)C1 [cobimetinib]	11%	-2%	-0.103%	-1.39%	0.613%	2.79%	-1%	
C[C@@H](Oc1cc(-c2cnn(C3CCNCC3)c2)cnc1N)c1c(Cl)ccc(F)c1Cl [crizotinib]								%-inhibition at 1 µmol/L, SPHK2 [1, 15]: 8%; %-inhibition at 1 µmol/L, PKCη [2, 16]: -8%; %-inhibition CHK2 [3, 17]: 9%; %-inhibition at 1 µmol/L, TRKB [4, 18]: 102%; %-inhibition at 1 µmol/L, EPHA1 [5, 19]: 97%; %-inhibition at 1 µmol/L, EPHA2 [6, 20]: 86%; %-inhibition at 1 µmol/L, TEC [7, 21]: 1.53%
CC(C)(C)c1nc(-c2cccc(NS(=O)(=O)c3c(F)cccc3F)c2F)c(-c2ccnc(N)n2)s1 [dabrafenib]								%-inhibition at 1 µmol/L, SPHK2 [1, 15]: -14%; %-inhibition at 1 µmol/L, PKCη [2, 16]: 9%; %-inhibition CHK2 [3, 17]: 7%; %-inhibition at 1 µmol/L, TRKB [4, 18]: 86%; %-inhibition at 1 µmol/L, EPHA1 [5, 19]: 44%; %-inhibition at 1 µmol/L, EPHA2 [6, 20]: 7%; %-inhibition at 1 µmol/L, TEC [7, 21]: 38%
C=CC(=O)N1CCC[C@@H](n2nc(-c3ccc(Oc4ccccc4)cc3)c3c(N)ncnc32)C1 [ibrutinib]	10%	3.27%	14%	26%	50%	7%	92%	
CO[C@@H]1[C@H](N(C)C(=O)c2ccccc2)C[C@H]2O[C@]1(C)n1c3ccccc3c3c4c(c5c6ccccc6n2c5c31)C(=O)NC4 [midostaurin]	12%		36%	99%	9%	3.36%	58%	%-inhibition at 1 µmol/L, PKCη [2]: 84%
C=CC(=O)Nc1cc(Nc2nccc(-c3cn(C)c4ccccc34)n2)c(OC)cc1N(C)CCN(C)C [osimertinib]	15%	0.117%	6%	-0.7%	13%	3.35%	86%	
